Data from ChEMBL document CHEMBL3603838, “Guanidinium compounds with sub-micromolar activities against Mycobacterium tuberculosis. Synthesis, characterization and biological evaluations” (Bioorg Med Chem, 2015).
≈ marks a conversion by molar mass, not a printed value.

How the values were obtained:
[1] = test system: Mycobacterium tuberculosis; assay: Antimycobacterial activity against Mycobacterium tuberculosis H37Rv after 6 days by MTT assay; assay type: functional, organism-based; settings: 144 h
[2] = Cytotoxicity against human MRC5 cells after 24 hrs; assay type: cell-based
[3] = Selectivity index, ratio of CC50 for human MRC5 cells to MIC for Mycobacterium tuberculosis H37Rv; assay type: toxicity, cell-based; settings: read-out: Selectivity Index

Structure (SMILES)	IC50 [1]	MIC [1]	CC50 at 24 h [2]	selectivity ratio [3]
N=C(N)NCCc1ccc(OCc2c(COc3ccc(CCNC(=N)N)cc3)c(COc3ccc(CCNC(=N)N)cc3)c(COc3ccc(CCNC(=N)N)cc3)c(COc3ccc(CCNC(=N)N)cc3)c2COc2ccc(CCNC(=N)N)cc2)cc1	3800 nM	12.5 µM (≈ 15.3 µg/mL)	26 µg/mL (≈ 21.2 µM)	1
O=C(O)c1cn(C2CC2)c2cc(N3CCNCC3)c(F)cc2c1=O [CIPROFLOXACIN]	600 nM	2.5 µM (≈ 0.828 µg/mL)	–	–
N=C(N)NCCc1ccc(OCc2cc(COc3ccc(CCNC(=N)N)cc3)cc(COc3ccc(CCNC(=N)N)cc3)c2)cc1.O=C(O)C(F)(F)F	350 nM	0.8 µM	39.5 µg/mL	49
N=C(N)NCCc1ccc(OCc2ccccc2COc2ccc(CCNC(=N)N)cc2)cc1.O=C(O)C(F)(F)F	1500 nM	6.2 µM	100 µg/mL	24
CC[C@@H](CO)NCCN[C@@H](CC)CO [ETHAMBUTOL]	–	9.8 µM (≈ 2 µg/mL)	> 10 µg/mL	> 5
N=C(N)NCCc1ccc(OCc2cc(COc3ccc(CCNC(=N)N)cc3)c(COc3ccc(CCNC(=N)N)cc3)cc2COc2ccc(CCNC(=N)N)cc2)cc1.O=C(O)C(F)(F)F	500 nM	3.2 µM	49 µg/mL	11.5
N=C(N)NCCc1cc2c(O)c(c1)Cc1cc(CCNC(=N)N)cc(c1O)Cc1cc(CCNC(=N)N)cc(c1O)Cc1cc(CCNC(=N)N)cc(c1O)C2	–	0.8 µM (≈ 0.612 µg/mL)	> 256 µg/mL	> 256
CN[C@@H]1[C@H](O[C@H]2[C@H](O[C@H]3[C@H](O)[C@@H](O)[C@H](N=C(N)N)[C@@H](O)[C@@H]3N=C(N)N)O[C@@H](C)[C@]2(O)C=O)O[C@@H](CO)[C@H](O)[C@H]1O [STREPTOMYCIN]	–	0.7 µM (≈ 0.407 µg/mL)	–	–
N=C(N)NCCc1ccc(OCc2ccc(COc3ccc(CCNC(=N)N)cc3)cc2)cc1.O=C(O)C(F)(F)F	800 nM	3.1 µM	21 µg/mL	10
NNC(=O)c1ccncc1 [ISONIAZID]	220 nM	0.6 µM (≈ 0.0823 µg/mL)	> 10 µg/mL	> 125
N=C(N)NCCc1ccc(OCc2cccc(COc3ccc(CCNC(=N)N)cc3)c2)cc1.O=C(O)C(F)(F)F	700 nM	3.1 µM	34.5 µg/mL	16
N=C(N)NCCc1ccc(OCc2ccccc2)cc1	5900 nM	25 µM (≈ 6.73 µg/mL)	26 µg/mL (≈ 96.5 µM)	2.6
